Holding throughout (test): Inhibition by ATA of reaction between peptide and homologous antibodies (FIG. 1B)
Assay type in all cases: binding, HIV-1 BH 10
What all share (settings): ATA 50 μg/ml

The target of assay [1] is peptide (845-862) from gp41 (Human immunodeficiency virus type 1 BH10, UniProt P03375). As to the method: (§1) FIG. 1 comprises four bar graphs concerning the interaction of aurintricarboxylic acid (ATA) with the V3 hypervariable loop of gp120 and with distinct peptides derived from the sequence of gp160. FIG. 1A: Inhibitory effect of ATA (50 μg/ml) on the reaction of antibodies to peptides from the sequence of HIV-1 gp160 with gp120 or gp160. gp120-coated wells were used for antisera to peptides from gp120 and gp160-coated wells were used with antisera to peptides from gp41. FIG. 1B: Inhibitory effect of ATA (50 μg/ml) on the reaction between antibodies to peptides from gp120/gp41 and homologous peptides. FIG. 1C: binding of ATA to wells coated with distinct peptides from the sequence of gp160, as determined by subsequent binding of anti-ATA antibodies. FIG. ID: Net electric charge of peptides from the sequence of gp160, determined by subtracting the number of aspartic (D) and glutamic (E) residues from the sum of lysine (K) and arginine (R) residues present in distinct segments of the gp160 sequence. The horizontal dotted line indicates the boundary between non-significant and significant inhibition, established from three times repeated experiments.
Sequence of peptide (845-862) from gp41 (P03375 512-856): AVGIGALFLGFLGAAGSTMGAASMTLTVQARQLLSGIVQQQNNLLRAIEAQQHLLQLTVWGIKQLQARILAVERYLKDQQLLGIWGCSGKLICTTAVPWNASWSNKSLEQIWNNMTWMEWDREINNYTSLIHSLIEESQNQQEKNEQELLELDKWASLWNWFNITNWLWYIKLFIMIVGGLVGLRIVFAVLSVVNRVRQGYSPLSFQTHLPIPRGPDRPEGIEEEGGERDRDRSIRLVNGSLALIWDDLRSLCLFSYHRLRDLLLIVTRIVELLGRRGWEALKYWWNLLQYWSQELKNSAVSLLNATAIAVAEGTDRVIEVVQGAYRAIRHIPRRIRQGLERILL
(§2) Wells of 96 well polystyrene plates (Immulon 2, Dynatech Laboratories, Inc., Chantilly, Va.) were coated with synthetic peptides (200 μl; 20μg/ml in 0.1 M Tris-HCl, pH 8.8) overnight at 20° C. The peptides were from the sequence of HIV-1, clone BH 10 envelope glycoproteins gp120 and gp41 (Neurath, A. R., Strick, N., and Lee, E. Y. S. (1990), "B-cell Epitope Mapping of Human Immunodeficiency virus (HIV-1) Envelope Glycoprotein with Long (19 to 36-residue) Synthetic Peptides", J. Gen. Virol., 71., 85-95) and from V3 hypervariable loops of 21 distinct HIV-1 isolates (clones) Neurath, A. R., and Strick, N., (1990), "Confronting the Hypervariability of an Immunodominant Epitope Eliciting Virus Neutralizing Antibodies from the Envelope Glycoprotein of the Human Immunodeficiency Virus Type 1 (HIV-1)", Molec. Immunol., 27, 539-549. The latter peptides corresponded to full-length V3 loops generated by disulfide bonds between N- and C- terminal cysteine residues. After washing with 0.14 M NaCl, 0.01 M Tris, 0.02% NaN3 (TS), the wells were postcoated with a mixture of bovine serum albumin (BSA) and gelatine (10 and 2.5 mg/ml, respectively) in TS. […]
(§3) To define sites on gp120/gp41 reacting with ATA, the inhibitory effect of this compound was studied by RIA tests using gp120- and gp160-coated wells, respectively, and antisera (final dilutions 1:150) against synthetic peptides from the entire sequence of gp120/gp41 of HIV-1 BH 10. […] Attached rabbit IgG was detected using ^125 I-labeled anti-rabbit IgG, as described before (Neurath et al., 1990, J. Gen. Virol., 71, 85-95). […]

For assay [2], the target named is T1, V3 hypervariable loop peptide (303-338) (Human immunodeficiency virus type 1 BH10, UniProt P03375).
T1 construct: cut from Env gp160
T1 sequence (P03375 296-331): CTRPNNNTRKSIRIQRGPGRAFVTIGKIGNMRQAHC
As to the method: as §1, §2, §3

The next assay deals with peptide (492-518) (Human immunodeficiency virus type 1 BH10, UniProt P03375). Here is the method: as §1, §2, §3
Sequence of peptide (492-518) (P03375 492-518): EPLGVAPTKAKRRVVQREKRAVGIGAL
The target of a further assay is peptide (331-361) (Human immunodeficiency virus type 1 BH10, UniProt P03375). Here is the method:
as §1, §2, §3

Sequence of peptide (331-361) (P03375 324-354): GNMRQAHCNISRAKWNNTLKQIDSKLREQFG

Consider `O=C(O)C1=CC(=C(c2ccc(O)c(C(=O)O)c2)c2ccc(O)c(C(=O)O)c2)C=CC1=O` [substance #122, aurintricarboxylic acid], for which the “inhibition of reaction of peptide with homologous antibodies” value in assay [1] is “Inhibition was also observed”; in assay [2] it was “most dramatically inhibited”; at peptide (492-518), “did not inhibit the reaction between this peptide and homologous anti-peptide antibodies”; against peptide (331-361), “Inhibition was also observed”.

The values above are taken from patent US5230998A, “Method for the prescreening of drugs targeted to the V3 hypervariable loop of the HIV-1 envelope glycoprotein gp 120” (priority 1991, dated 1993).
